Laboratory results taken from PubChem BioAssay AID248 (DTP/NCI, 2004).
Where “and” joins values, the source holds several entries; their conditions need not be identical. Identical values can stand only once. Toxic doses and inconclusive results are not listed.

System: L1210 leukemia ip in BDF1 mice, survival T/C
Experiment: NCI In Vivo Anticancer Drug Screen. Data for tumor model L1210 Leukemia (intraperitoneal) in B6D2F1 (BDF1) mice
Conditions: endpoint: mean survival time, higher = longer survival
Procedure, shortened: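 Tumor cells were implanted, animals were treated, and survival was followed. The result divides the treated measurement by the vehicle-control measurement.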

[1] = dose: 25.0 mg/kg/injection, schedule: Q04DX002 (ip), vehicle: Klucel (hydroxypropylcellulose) (HPC)
[2] = dose: 50.0 mg/kg/injection, schedule: Q04DX002 (ip), vehicle: Klucel (hydroxypropylcellulose) (HPC)
[3] = dose: 100.0 mg/kg/injection, schedule: Q04DX002 (ip), vehicle: Klucel (hydroxypropylcellulose) (HPC)
[4] = dose: 200.0 mg/kg/injection, schedule: Q04DX002 (ip), vehicle: Klucel (hydroxypropylcellulose) (HPC)
[5] = dose: 400.0 mg/kg/injection, schedule: Q04DX002 (ip), vehicle: Klucel (hydroxypropylcellulose) (HPC)
[6] = dose: 25.0 mg/kg/injection, schedule: Q01DX009 (ip), vehicle: Klucel (hydroxypropylcellulose) (HPC)
[7] = dose: 50.0 mg/kg/injection, schedule: Q01DX009 (ip), vehicle: Klucel (hydroxypropylcellulose) (HPC)
[8] = dose: 100.0 mg/kg/injection, schedule: Q01DX001 (ip), vehicle: saline
[9] = dose: 100.0 mg/kg/injection, schedule: Q01DX009 (ip), vehicle: Klucel (hydroxypropylcellulose) (HPC)
[10] = dose: 100.0 mg/kg/injection, schedule: Q04DX003 (ip), vehicle: Klucel (hydroxypropylcellulose) (HPC)
[11] = dose: 200.0 mg/kg/injection, schedule: Q01DX001 (ip), vehicle: saline
[12] = dose: 200.0 mg/kg/injection, schedule: Q04DX003 (ip), vehicle: Klucel (hydroxypropylcellulose) (HPC)
[13] = dose: 400.0 mg/kg/injection, schedule: Q01DX001 (ip), vehicle: saline
[14] = dose: 100.0 mg/kg/injection, schedule: Q04DX003 (ip), vehicle: saline
[15] = dose: 200.0 mg/kg/injection, schedule: Q04DX003 (ip), vehicle: saline
[16] = dose: 400.0 mg/kg/injection, schedule: Q04DX003 (ip), vehicle: saline
[17] = dose: 400.0 mg/kg/injection, schedule: Q04DX003 (ip), vehicle: Klucel (hydroxypropylcellulose) (HPC)
[18] = dose: 100.0 mg/kg/injection, schedule: Q04DX003 (ip), vehicle: saline with Tween-80
[19] = dose: 200.0 mg/kg/injection, schedule: Q04DX003 (ip), vehicle: saline with Tween-80
[20] = dose: 400.0 mg/kg/injection, schedule: Q04DX003 (ip), vehicle: saline with Tween-80
[21] = dose: 100.0 mg/kg/injection, schedule: Q01DX009 (ip), vehicle: saline
[22] = dose: 200.0 mg/kg/injection, schedule: Q01DX009 (ip), vehicle: saline
[23] = dose: 400.0 mg/kg/injection, schedule: Q01DX009 (ip), vehicle: saline

Compound: O=C1CCCCC1c1cccc2ccccc12 (stereo not given)
- T/C (dose: 100.0 mg/kg/injection, schedule: Q01DX001 (sc), vehicle: olive oil, sesame oil, peanut oil): 97 % of control
- T/C (dose: 200.0 mg/kg/injection, schedule: Q01DX001 (sc), vehicle: olive oil, sesame oil, peanut oil): 104 % of control
- T/C (dose: 400.0 mg/kg/injection, schedule: Q01DX001 (sc), vehicle: olive oil, sesame oil, peanut oil): 106 % of control

Compound: CN(C)N=Nc1ccc(S(=O)(=O)N(CCCl)CCCl)cc1
- T/C (dose: 12.5 mg/kg/injection, schedule: Q04DX002 (ip), vehicle: Klucel (hydroxypropylcellulose) (HPC)): 100 % of control
- T/C [1]: 96 % of control
- T/C [2]: 103 % of control
- T/C [3]: 120 % of control
- T/C [4]: 103 % of control
- T/C [5]: 95 % of control

Compound: O=[N+]([O-])/C=C\c1ccc2c(c1)OCO2
- T/C [6]: 87 % of control and 103 % of control
- T/C [7]: 89 % of control and 100 % of control
- T/C [8]: 106 % of control
- T/C [9]: 103 % of control
- T/C [10]: 102 % of control
- T/C [11]: 119 % of control
- T/C [12]: 97 % of control
- T/C [13]: 97 % of control

Compound: C=C1CC[N+]2(CCCC)CCCC12 (stereo not given)
- T/C (dose: 12.5 mg/kg/injection, schedule: Q01DX009 (ip), vehicle: Klucel (hydroxypropylcellulose) (HPC)): 103 % of control
- T/C [6]: 97 % of control
- T/C [7]: 95 % of control

Compound: O=C(Nc1ccc(C2=NCCN2)cc1)C1CCC(C(=O)Nc2ccc(C3=NCCN3)cc2)CC1 (stereo not given)
- T/C (dose: 0.46 mg/kg/injection, schedule: Q01DX Z (ip), vehicle: carboxymethylcellulose (CMC)): 103 % of control
- T/C (dose: 0.93 mg/kg/injection, schedule: Q01DX Z (ip), vehicle: carboxymethylcellulose (CMC)): 112 % of control
- T/C (dose: 3.75 mg/kg/injection, schedule: Q01DX Z (ip), vehicle: carboxymethylcellulose (CMC)): 152 % of control
- T/C (dose: 11.0 mg/kg/injection, schedule: Q01DX015 (ip), vehicle: methylcellulose (MC)): 197 % of control
- T/C (dose: 15.0 mg/kg/injection, schedule: Q01DX Z (ip), vehicle: carboxymethylcellulose (CMC)): 227 % of control
- T/C (dose: 22.0 mg/kg/injection, schedule: Q01DX015 (ip), vehicle: methylcellulose (MC)): 262 % of control
- T/C (dose: 30.0 mg/kg/injection, schedule: Q01DX Z (ip), vehicle: carboxymethylcellulose (CMC)): 250 % of control
- T/C (dose: 31.0 mg/kg/injection, schedule: Q01DX015 (ip), vehicle: methylcellulose (MC)): 284 % of control
- T/C (dose: 45.0 mg/kg/injection, schedule: Q01DX015 (ip), vehicle: methylcellulose (MC)): 335 % of control
- T/C (dose: 60.0 mg/kg/injection, schedule: Q01DX Z (ip), vehicle: carboxymethylcellulose (CMC)): 173 % of control
- T/C (dose: 62.0 mg/kg/injection, schedule: Q01DX015 (ip), vehicle: methylcellulose (MC)): 229 % of control
- T/C (dose: 125.0 mg/kg/injection, schedule: Q01DX015 (ip), vehicle: methylcellulose (MC)): 201 % of control
- T/C (dose: 125.0 mg/kg/injection, schedule: Q01DX Z (ip), vehicle: carboxymethylcellulose (CMC)): 102 % of control
- T/C (dose: 250.0 mg/kg/injection, schedule: Q01DX001 (ip), vehicle: methylcellulose (MC)): 178 % of control
- T/C (dose: 250.0 mg/kg/injection, schedule: Q01DX015 (ip), vehicle: methylcellulose (MC)): 160 % of control
- T/C (dose: 750.0 mg/kg/injection, schedule: Q01DX001 (ip), vehicle: methylcellulose (MC)): 243 % of control
- T/C (dose: 1500.0 mg/kg/injection, schedule: Q01DX001 (ip), vehicle: methylcellulose (MC)): 202 % of control and 239 % of control and 253 % of control

Compound: NC(=O)NC(=O)C1C2CC3OC(=O)C1C3C2 (stereo not given)
- T/C [14]: 93 % of control
- T/C [15]: 93 % of control
- T/C [16]: 98 % of control

Compound: CC(=O)OCCOC(=O)Nc1cccc2ccccc12
- T/C [3]: 100 % of control
- T/C [4]: 100 % of control
- T/C [5]: 97 % of control

Compound: O=P1(CCc2ccc(Br)cc2)CC(Br)C(Br)C1 (stereo not given)
- T/C [10]: 104 % of control
- T/C [12]: 106 % of control
- T/C [17]: 96 % of control

Compound: N#CCCN(CCC#N)C(=O)Nc1cccc(Cl)c1
- T/C [18]: 98 % of control
- T/C [19]: 88 % of control
- T/C [20]: 91 % of control

Compound: CCCC#CC(O)(C(=O)OC)c1ccccc1 (stereo not given)
- T/C (dose: 100.0 mg/kg/injection, schedule: Q01DX001 (ip), vehicle: other): 102 % of control
- T/C (dose: 200.0 mg/kg/injection, schedule: Q01DX001 (ip), vehicle: other): 103 % of control
- T/C (dose: 400.0 mg/kg/injection, schedule: Q01DX001 (ip), vehicle: other): 105 % of control

Compound: COc1ccc(C(CC(=O)c2ccc3c(c2)OCO3)c2c(O)c3ccccc3oc2=O)cc1OC (stereo not given)
- T/C (dose: 50.0 mg/kg/injection, schedule: Q01DX009 (ip), vehicle: saline with Tween-80): 96 % of control
- T/C (dose: 100.0 mg/kg/injection, schedule: Q01DX009 (ip), vehicle: saline with Tween-80): 96 % of control
- T/C [18]: 94 % of control
- T/C (dose: 200.0 mg/kg/injection, schedule: Q01DX009 (ip), vehicle: saline with Tween-80): 91 % of control
- T/C [19]: 89 % of control
- T/C [20]: 88 % of control

Compound: CCOc1ccc(N(O)C(C)=O)cc1
- T/C [14]: 91 % of control
- T/C [15]: 100 % of control
- T/C [16]: 96 % of control

Compound: CCOc1ccc(-n2c(=O)c(N=Nc3ccc(Cl)cc3)c(O)n(-c3ccccc3OC)c2=S)cc1
- T/C (dose: 37.5 mg/kg/injection, schedule: Q01DX001 (ip), vehicle: Klucel (hydroxypropylcellulose) (HPC)): 92 % of control
- T/C (dose: 75.0 mg/kg/injection, schedule: Q01DX001 (ip), vehicle: Klucel (hydroxypropylcellulose) (HPC)): 113 % of control
- T/C (dose: 150.0 mg/kg/injection, schedule: Q01DX001 (ip), vehicle: Klucel (hydroxypropylcellulose) (HPC)): 103 % of control

Compound: CC12CCC(=O)C=C1CCC1C2C(=O)CC2(C)C1CCC2(O)C(=O)CSc1ncnc2nc[nH]c12 (stereo not given)
- T/C (dose: 100.0 mg/kg/injection, schedule: Q01DX001 (sc), vehicle: steriod suspending solution): 103 % of control
- T/C (dose: 200.0 mg/kg/injection, schedule: Q01DX001 (sc), vehicle: steriod suspending solution): 106 % of control
- T/C (dose: 400.0 mg/kg/injection, schedule: Q01DX001 (sc), vehicle: steriod suspending solution): 112 % of control

Compound: C/C=C\S(=O)(=O)c1ccccc1
- T/C [1]: 98 % of control
- T/C [2]: 98 % of control
- T/C [3]: 105 % of control
- T/C [4]: 89 % of control

Compound: CCOC(=O)/C(C#N)=C1/CCCN1
- T/C [21]: 97 % of control
- T/C [22]: 100 % of control
- T/C [23]: 108 % of control

Compound: CS(=O)(=O)OCCN(CCOS(C)(=O)=O)c1ccc(C=Nc2ccc(-c3cnc(-c4ccc(Cl)cc4)s3)cc2)c(Cl)c1
- T/C [6]: 98 % of control
- T/C [7]: 107 % of control
- T/C [9]: 109 % of control

Compound: NC(=O)NNC1=CC(=O)CCO1
- T/C [8]: 107 % of control
- T/C [11]: 106 % of control
- T/C [13]: 104 % of control

Compound: OCC1OC(Sc2ncc3cnccn23)C(O)C(O)C1O (stereo not given)
- T/C (dose: 100.0 mg/kg/injection, schedule: Q01DX005 (ip), vehicle: saline): 100 % of control
- T/C (dose: 200.0 mg/kg/injection, schedule: Q01DX005 (ip), vehicle: saline): 100 % of control

Compound: O=c1c(O)c(-c2ccc(O)c(O)c2)oc2cc(O)cc(O)c12
- T/C (dose: 25.0 mg/kg/injection, schedule: Q01DX009 (ip), vehicle: saline): 115 % of control
- T/C (dose: 50.0 mg/kg/injection, schedule: Q01DX009 (ip), vehicle: saline): 105 % of control
- T/C [21]: 103 % of control
- T/C [22]: 104 % of control and 120 % of control

Compound: CN(N)c1nc2c(N)ncnc2n1C1OC(CO)C(O)C1O (stereo not given)
- T/C (dose: 12.5 mg/kg/injection, schedule: Q01DX005 (ip), vehicle: saline): 97 % of control
- T/C (dose: 25.0 mg/kg/injection, schedule: Q01DX005 (ip), vehicle: saline): 108 % of control
- T/C (dose: 50.0 mg/kg/injection, schedule: Q01DX005 (ip), vehicle: saline): 100 % of control

Compound: O=C(O)c1ccc(O)c([N+](=O)[O-])c1
- T/C [21]: 105 % of control
- T/C [10]: 101 % of control
- T/C [22]: 96 % of control
- T/C [12]: 100 % of control
- T/C [23]: 87 % of control
- T/C [17]: 102 % of control
